Assay results taken from patent US20180344690A1, “Methods and Formulation for Enhancing Response to Radiotherapy” (The Board of Trustees of the Leland Stanford Junior …, priority 2017, published 2018).
Read-outs that look alike come from different tables or passages of the source.

Experiments:
clinical = conditions: human, in vivo
Description: (§1) Patients underwent dynamic susceptibility contrast perfusion MRI (DSC-MRI) for quantification of relative cerebral blood volume (rCBV) values by region-of-interest analysis.

glioblastoma [1] = assay: clinical
Description: as §1

glioblastoma [2] = test system: glioblastoma
Description: Normalized relative cerebral blood volume (rCBV) ratios were calculated by the mean rCBV within the 95% isodose radiation field one month post-radiation as compared to contralateral white matter outside of the radiation field.

APL = conditions: cited from earlier work
in vivo = conditions: human
[3] = cited from earlier work
[4] = up to 320 μg/kg, healthy volunteers; cited from earlier work
[5] = test system: human serum albumin and 1-acid glycoprotein; conditions: cited from earlier work
[6] = cited from earlier work; remark: listed apart in the source
[7] = cited from earlier work; for mean AUC from time 0 to 24 hours postdose, higher than in subjects with normal renal function: single 240 μg/kg SC
CD34+ cell mobilization = conditions: cited from earlier work
[8] = test system: peripheral blood (PB) CD34+ counts; conditions: cited from earlier work; for absolute CD34+ cell count (mean+/−SE): all patients
CD34+ cells = conditions: cited from earlier work
CD34+ stem cells = conditions: cited from earlier work
[9] = test system: BCR-ABL(+) leukemia (CML); conditions: cited from earlier work
CML = conditions: cited from earlier work
AML = conditions: cited from earlier work
MM = conditions: cited from earlier work
[10] = test system: chronic lymphocytic leukemia (CLL); conditions: cited from earlier work
[11] = cited from earlier work; remark: listed apart in the source
[12] = cited from earlier work; remark: listed apart in the source
CXCR4 = CXCR4 (Homo sapiens, UniProt P61073); conditions: cited from earlier work
[13] = Preclinical animal toxicology studies; conditions: in vivo
[14] = cells collected by Plerixafor plus G-CSF
[15] = 23 evaluable patients, with bortezomib

CXCR4, sequence (P61073 whole entry): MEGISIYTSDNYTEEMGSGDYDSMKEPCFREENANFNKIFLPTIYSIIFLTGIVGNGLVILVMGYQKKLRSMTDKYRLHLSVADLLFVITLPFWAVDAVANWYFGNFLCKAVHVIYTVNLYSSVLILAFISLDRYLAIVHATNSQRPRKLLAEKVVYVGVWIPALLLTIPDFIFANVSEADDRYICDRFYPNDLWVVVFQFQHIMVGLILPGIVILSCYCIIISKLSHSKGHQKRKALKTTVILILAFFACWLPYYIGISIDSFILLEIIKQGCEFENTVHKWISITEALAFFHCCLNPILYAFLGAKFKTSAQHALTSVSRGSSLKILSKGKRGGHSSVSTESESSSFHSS

## c1cc(CN2CCCNCCNCCCNCC2)ccc1CN1CCCNCCNCCCNCC1 [Plerixafor]
clinical
  concentration at 7 days: ≥ 100 ng/mL
Glioblastoma [1]; DSC-MRI at 1 and 6 months post-RT, P<0.02, one way ANOVA
  rCBV in the tumor bed compared to the postoperative pre-RT scan: lower rCBV
Glioblastoma [1]; currently
  patients alive: 7 of 9
Glioblastoma [1]; human, in vivo
  dose limiting toxicities (DLTs): no DLTs observed
  longest survival since diagnosis: 18 months
Glioblastoma [1]; human, in vivo, iv, 4 weeks
  recommended phase II dose: 16.6 µg/kg/h
Glioblastoma [2]; as of Feb. 7, 2017, expected 20%, p<0.03, Fisher's exact test
  rate of out of field recurrence: 77%
Glioblastoma [2]; one month after radiation therapy, patients receiving Plerixafor compared to control, p<0.02
  rCBV measured by DSC-MRI within the 95% isodose field: significant reduction
Glioblastoma [2]; one-month post radiation therapy, Plerixafor compared to control patients
  rCBV out of the radiation field: similar
U251 human GBM cells; after 40 days, radiotherapy and Plerixafor compared to radiotherapy alone (FIG. 5A)
  blood flow to a tumor: lower blood flow
U251 human GBM cells; over 80 days, radiation and Plerixafor (continuous infusion) compared to other treatment groups (FIG. 5B, 5C)
  tumor size: reduced tumor size
APL; in these experiments (leukemia models)
  anti-tumor effect of Plerixafor alone: no detectable anti-tumor effect
APL; untreated control 18 days, cytarabine vs cytarabine+Plerixafor p<0.0006
  median overall survival: 19 days
In vivo
  MTD: ~1.8 mg/kg
[3]; 10, 20, 40, 80 μg/kg
  Cmax and AUC0-∞ across the four dose levels: dose proportionality
[3]; IV, 40 μg/kg
  Cmax: 292.8±67.0
[3]; IV, 80 μg/kg
  Cmax: 503.9±29.6
[3]; SC, 40 μg/kg
  Cmax: 123.5±27.9
[3]; SC, 80 μg/kg
  Cmax: 238.3±17.3
[3]; following a single dose, bi-exponential elimination from plasma
  terminal elimination half-life: 3.5 to 5 h
[3]; following subcutaneous administration
  time of peak plasma levels: 0.5 to 1 h
[3]; human, in vivo
  bioavailability: 80-90%
[4]
  pharmacokinetics over the tested dose range: linear pharmacokinetics
[5]
  protein binding: extensively protein bound
[6]; 240 μg/kg SC with G-CSF
  median terminal half-life: 4.6 h
[6]; 240 μg/kg SC with G-CSF, in most patients
  time of peak plasma concentrations: 0.5 h
[6]; after Plerixafor injection, all patients
  time of maximum fold increase in circulating cells: approximately 10 hours
[6]; range, 3.0- to 5.5-fold
  median maximum increase in the number of circulating cells from baseline: 4.2 fold
[7]; human, in vivo
  effect of renal impairment on maximal plasma concentrations: no effect
[7]; mild renal impairment
  mean AUC from time 0 to 24 hours postdose, higher than in subjects with normal renal function: 7%
[7]; moderate renal impairment
  mean AUC from time 0 to 24 hours postdose, higher than in subjects with normal renal function: 32%
[7]; severe renal impairment
  mean AUC from time 0 to 24 hours postdose, higher than in subjects with normal renal function: 39%
[7]; subjects with renal impairment vs controls
  safety profile: similar
[7]; subjects with renal impairment, positively correlated with creatinine clearance
  Plerixafor clearance: reduced
CD34+ cell mobilization; human, in vivo
  most frequently reported adverse effects: injection site reactions, gastrointestinal (GI) effects, paresthesias, and headaches
CD34+ cell mobilization; on average
  augmentation of CD34+ cell mobilization by G-CSF: 3.8 fold
CD34+ cell mobilization; single SC dose 160 or 240 μg/kg alone or added to G-CSF
  safety and tolerability: generally safe and well-tolerated
[8]; 4 and 6 hours following a single injection
  total white blood cell (WBC) and peripheral blood (PB) CD34+ counts: rapid and statistically significant increase
[8]; 4 hours after injection, baseline 2.6+/−0.7/μL, P=0.002
  absolute CD34+ cell count (mean+/−SE): 15.6 ± 3.9 µL⁻¹
[8]; 4 hours, 160 μg/kg group
  absolute CD34+ cell count: 11.3 ± 2.7 µL⁻¹
[8]; 4 hours, 240 μg/kg group
  absolute CD34+ cell count: 19.3 ± 6.9 µL⁻¹
[8]; 6 hours after injection, P=0.003
  absolute CD34+ cell count (mean+/−SE): 16.2 ± 4.3 µL⁻¹
[8]; 6 hours, 160 μg/kg group
  absolute CD34+ cell count: 11.3 ± 2.5 µL⁻¹
[8]; 6 hours, 240 μg/kg group
  absolute CD34+ cell count: 20.4 ± 7.6 µL⁻¹
[8]; single injection 160 or 240 μg/kg
  toxicities: only grade 1 toxicities were observed
CD34+ cells; Plerixafor plus G-CSF compared to G-CSF alone
  patients achieving ≥5×10^6 CD34+ cells/kg: More patients
CD34+ cells; Plerixafor plus G-CSF, nine patients, all patients
  CD34+ cells mobilized in patients who mobilized poorly with G-CSF alone: > 2×10^6 CD34+ cells/kg
CD34+ cells; [14]
  median day of platelet engraftment: 17 days
  median day of polymorphonuclear leukocyte (PMN) engraftment: 10 days
CD34+ cells; human, in vivo
  drug-related serious or unexpected adverse effects: no drug-related serious adverse effects or unexpected adverse effects
CD34+ stem cells; Plerixafor 240 μg/kg added to G-CSF compared with G-CSF alone
  proportion of patients with MM able to mobilize the target (6×10^6 cells/kg) CD34+ cells: significantly increased the proportion of patients
CD34+ stem cells; Plerixafor added to G-CSF
  apheresis days to reach target: significantly fewer apheresis days
[9]
  sensitivity to the tyrosine kinase inhibitors Imatinib and Nilotinib: confer added sensitivity
  tumor cell chemotaxis: inhibit tumor cell chemotaxis
CML; added to nilotinib, vs nilotinib alone
  leukemia burden in mice: significantly reduced
CML; in vivo
  mobilization of leukemic cells: mobilize leukemic cells in vivo
AML; 2 patients
  early death due to complications from infection: 6%
AML; 14 patients
  treatment failure due to persistent disease: 44%
AML; 32 evaluable patients at 240 μg/kg, historical CR rates 25-35%
  complete remission (CR+CRi): 50%
AML; Plerixafor + MEC, range 20-40 d
  platelet recovery (plt >50 k/mm3), median: 26 days
AML; Plerixafor + MEC, range 21-37
  neutrophil recovery (ANC >500/mm3), median: 27 days
AML; after administration
  time of peak AML blast mobilization: 6 to 8 h
AML; in vivo
  One year KM estimate of overall survival: 56%
  common grade 3 adverse events: cytopenias and infections
  hyperleukocytosis: No evidence of hyperleukocytosis
AML; range 0.9-7.3 fold
  mobilization of AML blasts into the peripheral circulation, mean increase: 2.5 fold
MM; [15]
  MR: 13%
  complete response (CR): 4%
  overall response rate (including MR): 22%
  progressive disease (PD) as best response: 13%
  very good partial response (VGPR): 4%
MM; dose level 6 (Plerixafor 400 μg/kg and bortezomib 1.3 mg/m^2)
  Dose limiting toxicities including insomnia, restlessness, and psychosis: observed in two patients
MM; in vivo
  de-adhesion of MM cells and accessory cells: transient de-adhesion of MM cells and accessory cells in vivo in most of the patients
MM; with bortezomib
  Grade 3 anemia: 10%
  Grade 3 bone fracture due to myeloma bone disease: 10%
  Grade 3 hypercalcemia: 10%
  Grade 3 hyponatremia: 10%
  Grade 3 hypophosphatemia: 20%
  Grade 3 lymphopenia: 40%
  grade 4 toxicities: no grade 4 toxicities
  tolerability of the combination: well tolerated
[10]; 80, 160, 240, 320 μg/kg, preliminary results
  mobilization of CLL cells: mobilized to the peripheral blood in a dose-dependent fashion
[10]; CLL patients with WBC <50×109/L
  tolerability of the combination of Plerixafor and rituximab: well tolerated
[10]; with rituximab
  dose limiting toxicities: no dose limiting toxicities were reported
  most common adverse events: nausea, fatigue, chills, and diarrhea
  remissions: partial remissions were seen in a proportion of patients
[11]; animals, adverse neurologic effects
  MTD: approximately 70 mg/m^2
[11]; including severe dyspnea, tremors, ventral recumbency, convulsions at higher dosages
  dose limiting toxicities (DLTs): primarily adverse neurologic events
[12]; G-CSF plus Plerixafor 240 μg/kg SC
  adverse events that occurred more frequently with Plerixafor than placebo: insomnia, headache, dizziness, diarrhea, nausea, flatulence, abdominal pain, vomiting, abdominal distention, dry mouth, stomach discomfort, constipation, dyspepsia, hypoaesthesia oral, arthralgia, musculoskeletal pain, hyperhidrosis, erythema, injection site reactions, fatigue, and malaise
[12]; Plerixafor 240 μg/kg in conjunction with G-CSF, NHL or MM
  tolerability: well-tolerated
[12]; Plerixafor and G-CSF compared to G-CSF alone, both trials
  PMN and PLT engraftment of mobilized hematopoietic stem cells: equally capable of prompt and durable PMN and PLT engraftment
CXCR4
  inhibition of the binding of SDF-1a (CXCL12) to CXCR4: reversible inhibitor
[13]
  approximate human equivalent dose of early adverse neurologic effects: 470-940 μg/kg
